Measured values published in PMC11946679 (Toxics, 2025).
Like-named read-outs stand apart in the source and are kept apart here.

Tests used:
[1] = system: human peripheral blood lymphocytes; format: cell-based; settings: 3 h
From the text: While screening microscope preparations to determine trends in the levels of the main CBMN assay descriptors, nonviable cells were also simultaneously counted on the same slides. Their discrimination was based on the specific morphological features typical for apoptosis or necrosis. It is well known that the biological significance of these phenomena differs deeply, and that the determination of the predominant type of cell death represents a very important issue in each experimental setting.
For each experimental group, we also calculated the ratio between the recorded number of nonviable cells and the cells in apoptosis (Table 5). According to reference, a ratio ≤ 1 means a prevalence of apoptotic events that induce cell death, while a ratio > 1 indicates the acute toxicity of the tested substance that promotes necrosis.

[2] = system: human peripheral blood lymphocytes; assay: CBMN cytome assay: lymphocyte proliferation (M1-M4, CBPI, RI); format: cell-based; settings: 3 h
Procedure: On the same slides, parameters of cell proliferation and cytotoxicity were also evaluated, in line with the OECD protocol.

human lymphocytes = system: human lymphocytes; design: method as in PMID 27461151; settings: galangin at 10-20,000 μmol/L; cited from earlier work
[3] = 1× + IRI 9.0 mg/L, propolis 1.36 mg/L, galangin 0.02 mg/L
[4] = 5× + IRI 9.0 mg/L, propolis 6.8 mg/L, galangin […]
[5] = 10× + IRI 9.0 mg/L, propolis 13.6 mg/L, galangin 0.22 mg/L
[6] = scored along with 4000 binucleated cells, 1× + IRI 9.0 mg/L, propolis 1.36 mg/L, galangin 0.02 mg/L
[7] = scored along with 4000 binucleated cells, 5× + IRI 9.0 mg/L, propolis 6.8 mg/L, galangin […]
[8] = scored along with 4000 binucleated cells, 10× + IRI 9.0 mg/L, propolis 13.6 mg/L, galangin 0.22 mg/L
[9] = 1× alone, propolis 1.36 mg/L, galangin 0.02 mg/L
[10] = 5× alone, propolis 6.8 mg/L, galangin […]
[11] = 10× alone, propolis 13.6 mg/L, galangin 0.22 mg/L

Compound: O=c1c(O)c(-c2ccccc2)oc2cc(O)cc(O)c12 [Galangin]
- Ratio (nonviable cells and cells in apoptosis) [1, 3]: 0.5
- Ratio (nonviable cells and cells in apoptosis) [1, 4]: 0.5
- Ratio (nonviable cells and cells in apoptosis) [1, 5]: 0.6
- Ratio (nonviable cells and cells in apoptosis) ([1]; male, human, 0.02 mg/L): 0.5
- Total No. of Cells in Apoptosis ([1]; male, human, 0.02 mg/L): 7
- Total No. of Nonviable Cells ([1]; male, human, 0.02 mg/L): 14
- Ratio (nonviable cells and cells in apoptosis) ([1]; male, human, 0.22 mg/L): 0.7
- Total No. of Cells in Apoptosis ([1]; male, human, 0.22 mg/L): 8
- Total No. of Nonviable Cells ([1]; male, human, 0.22 mg/L): 12
- Total No. of Cells in Apoptosis [1, 6]: 28
- Total No. of Nonviable Cells [1, 6]: 52
- Total No. of Cells in Apoptosis [1, 7]: 23
- Total No. of Nonviable Cells [1, 7]: 42
- Total No. of Cells in Apoptosis [1, 8]: 19
- Total No. of Nonviable Cells [1, 8]: 34
- % of Cells with 1 to 4 Nuclei M1 [2, 3]: 24.5 ^↑L %
- % of Cells with 1 to 4 Nuclei M2 [2, 3]: 72.3 ^H %
- % of Cells with 1 to 4 Nuclei M3 [2, 3]: 1.4 ^↓ %
- % of Cells with 1 to 4 Nuclei M4 [2, 3]: 1.8 ^↓ %
- CBPI [2, 3]: 1.788
- Replication Index (%) [2, 3]: 80.1%
- % of Cells with 1 to 4 Nuclei M1 [2, 9]: 13.4%
- % of Cells with 1 to 4 Nuclei M2 [2, 9]: 74.7%
- % of Cells with 1 to 4 Nuclei M3 [2, 9]: 4.0%
- % of Cells with 1 to 4 Nuclei M4 [2, 9]: 7.9%
- CBPI [2, 9]: 1.986
- Replication Index (%) [2, 9]: 100.3%
- % of Cells with 1 to 4 Nuclei M1 [2, 4]: 22.6 ^↑L %
- % of Cells with 1 to 4 Nuclei M2 [2, 4]: 74.2 ^H %
- % of Cells with 1 to 4 Nuclei M3 [2, 4]: 1.6 ^↓ %
- % of Cells with 1 to 4 Nuclei M4 [2, 4]: 1.6 ^↓ %
- CBPI [2, 4]: 1.806
- Replication Index (%) [2, 4]: 82.0%
- % of Cells with 1 to 4 Nuclei M1 [2, 10]: 13.3%
- % of Cells with 1 to 4 Nuclei M2 [2, 10]: 76.9 ^↑ %
- % of Cells with 1 to 4 Nuclei M3 [2, 10]: 3.3 ^↓ %
- % of Cells with 1 to 4 Nuclei M4 [2, 10]: 6.5%
- CBPI [2, 10]: 1.967
- Replication Index (%) [2, 10]: 98.3%
- % of Cells with 1 to 4 Nuclei M1 [2, 5]: 23.1 ^↑L %
- % of Cells with 1 to 4 Nuclei M2 [2, 5]: 74.6 ^H %
- % of Cells with 1 to 4 Nuclei M3 [2, 5]: 1.0 ^↓L %
- % of Cells with 1 to 4 Nuclei M4 [2, 5]: 1.3 ^↓ %
- CBPI [2, 5]: 1.792
- Replication Index (%) [2, 5]: 80.5%
- % of Cells with 1 to 4 Nuclei M1 [2, 11]: 10.8 ^↓ %
- % of Cells with 1 to 4 Nuclei M2 [2, 11]: 79.0 ^↑ %
- % of Cells with 1 to 4 Nuclei M3 [2, 11]: 4.0%
- % of Cells with 1 to 4 Nuclei M4 [2, 11]: 6.2%
- CBPI [2, 11]: 1.995
- Replication Index (%) [2, 11]: 101.2%
- genotoxicity (human lymphocytes): not genotoxic per se
